# Measurements published in patent US20110098332A1, “Insecticides for Increasing the Crop Yield” (BASF SE, priority 2007, published 2011).
# Key:
# [1] = test system: Spring wheat (cultivar Triso); assay: Crop yield increase in spring wheat after seed treatment (field trial); type: in vivo; details: seed treatment 100 ml/100 kg seeds (Regent FS 500, 50 g per 100 kg seeds), harvest 130 days after planting
# Text: (§1) The N-min analysis method used in the examples determines the content of mineral nitrogen compounds in the soil (0-90 cm depth) at the beginning of the vegetative period. For this purpose, samples are taken in a depth of 0 to 90 cm and mineral nitrogen compounds (ammonium compounds and nitrates) are extracted and analyzed. The method is described in R. Thun et al., “Die Untersuchung von Böden, Methodenbuch Bd. 1, 4th edition 1991, edition VDLUFA (Verband Deutscher Landwirtschaftlicher Untersuchungs- and Forschungsanstalten), Darmstadt, Germany.
# Spring wheat seeds (cultivar Triso) were treated with fipronil (used as commercially available product Regent FS 500; an FS formulation containing 500 g/l of active compound; 50 g per 100 kg seeds) in a HEGE 11 seed treatment apparatus. A part of the seeds remained untreated (control). Five days after the treatment, the seeds were planted near Gommersheim, Palatine, Germany, in a loamy sand with a pH of 6.7, and a tilling depth of 30 cm. Nitrogen content following N-min analysis was 52 kg N per ha in 0 to 90 cm depth. 400 seeds per m^2 were sown in 1.86 m by 5.5 m plots. Row spacing was 13 cm and seeding depth 3 cm. The treatments were supplied with either standard amount of nitrogen (140 kg N/ha) or reduced amount of nitrogen (30 kg N/ha). 130 days after planting, the wheat grains were harvested and weighed.
# [2] = test system: Winter wheat (cultivar Türkis); assay: Crop yield in winter wheat after seed treatment (field trial); type: in vivo; details: seed treatment 50 ml/100 kg seeds (Regent FS 500, 25 g per 100 kg seeds), harvest 269 days after planting
# Text: as §1
# Winter wheat seeds (cultivar Türkis) were treated with fipronil (used as commercially available product Regent FS 500; an FS formulation containing 500 g/l of active ccompound; 25 g per 100 kg seeds) in a HEGE 11 seed treatment apparatus. A part of the seeds remained untreated (control). Two days after the treatment, the seeds were planted in Böhl, Palatine, Germany, in a loamy sand with a pH of 6.7, and a tilling depth of 30 cm. Nitrogen content following N-min analysis was 26 kg N per ha in 0 to 90 cm depth. 400 seeds per m^2 were sown in 1.86 m by 5.5 m plots. Row spacing was 13 cm and seeding depth 3 cm. The treatments were supplied with either standard amount of nitrogen (180 kg N/ha) or reduced amount of nitrogen (50 kg N/ha). 269 days after planting, the wheat grains were harvested and weighed.
compound,measurement,setting,value
N#Cc1nn(-c2c(Cl)cc(C(F)(F)F)cc2Cl)c(N)c1[S+]([O-])C(F)(F)F (stereo not shown) [fipronil],Crop yield,"[1]; reduced nitrogen (30 kg N/ha), control 47.0",51.4 dt/ha
same,Crop yield,"[1]; standard nitrogen (140 kg N/ha), control 62.8",63.2 dt/ha
same,Crop yield,"[2]; reduced nitrogen (50 kg N/ha), control 82.6",86.1 dt/ha
same,Crop yield,"[2]; standard nitrogen (180 kg N/ha), control 87.4",87.4 dt/ha
